# Results reported in patent US4668677A, “4-phenylphthalazine derivatives, their preparation and their use as pharmaceuticals” (Mitsubishi Chemical Industries Limited, priority 1984, dated 1987).
# Assays:
# rabbits = assay: Anti-thrombotic activity: arachidonic acid-induced mortality in rabbits; type: in vivo, rabbit (male New Zealand White)
# Procedure: Male ICR-JCL strain mice with an average body weight of about 25 g and male New Zealand White rabbits with an average body weight of about 3 Kg were used.
# Where rabbits were used as experimental animals, a suspension of the test compound in a 1% tragacanth aqueous solution was orally administered to animals at 5 ml/Kg. Two hours after the administration, an arachidonic acid solution dissolved in a 0.1M potassium carbonate solution was injected into pinna vein at 1.4 mg/Kg.
# Evaluation of activity was effected with mortality at the time when arachidonic acid given. If survived at the first administration of arachidonic acid, arachidonic acid was administered after 6 hours, 24 hours, 48 hours and 72 hours from the administration of the test compound, respectively, and mortality was determined in respective cases.
# blood platelets = assay: Activity to inhibit the blood platelet adhesion (glass bead method); type: cell-based, rat (male Wistar-ST strain); details: Rattus norvegicus, read-out: Inhibitory rate of blood platelet adhesion
# Procedure: As experimental animals, there were used male Wistar-ST strain rats of an average body weight of 250 g.
# Blood samples were obained from carotid arteries by means of a cannule and immediately admixed with sodium citrate at a volume ratio of 1/10. The mixture was centrifuged at 200×g over 15 minutes to collect the supernatant (platelet-rich plasma: PRP). The PRP was then centrifuged at 2000×g over 15 minutes and the supernatant was removed to give blood platelet pellet.
# To the resultant blood platelet pellet was added a 15 mM tris.HCl buffer solution with EDTA (pH 7.4) to resuspend blood platelets therein and then one applied centrifugation at 2000×g over 15 minutes and the supernatant was removed. The resultant washed blood platelets were added to a 0.3 mM tris.HCl buffer solution with CaCl2 (pH 7.4) to resuspend blood platelets therein, whereby there was prepared a blood platelet suspension adjusted to five hundred thousand platelets/μl. To 2 ml of the blood platelet suspension were added 2 μl of a methanolic solution of each test compound and incubation was effected for 15 minutes. Then blood platelet adhesion was determined according to a glass bead method by using a timing blood suction apparatus for determining the blood platelet adhesion.
# The number of blood platelets was counted by means of a blood platelet counter.
# Inhibitory rate of blood platelet adhesion was calculated according to the following equation: [formula] A: Blood platelet number in the blood platelet suspension passed through a control column
# B: Blood platelet number in the blood platelet suspension passed through a bead-packing column
# Thoracic aorta = assay: Calcium antagonistic activity (relaxation of thoracic aorta); type: cell-based, rat (male Wistar strain); details: Rattus norvegicus, 10 mM CaCl2
# Procedure: Thoracic aorta was removed from male Wistar strain rats with a body weight of 350 g to 450 g and then spiral-shaped pieces of aorta were prepared therefrom. […] Thereafter, samples were further stabilized in Krebs-Henseleit solution containing no CaCl2 over 1 hour and then in a 80 mM KCl nutritive liquid wherein NaCl was exchanged with an equimolar KCl (depolarized liquid) over a further one hour. Then, samples were washed with the depolarized liquid and loaded with a static tension of 1.0 g. When CaCl2 was added to the nutritive liquid so as to reach a final concentration of 10 mM, tension was produced in samples and, after 15-20 minutes from the addition of CaCl2, the maximum tension was obtained. At this point, test compounds were applied and relaxing activity of test compounds was evaluated. Tension was determined in equal dimension.
# Relaxation rate was calculated according to the following equation: [formula] A: Maximum tension generated B: Generated tension retained after administration of test compound
# All test compounds were given in the form of a solution in dimethyl sulfoxide at a dose of 0.1 ml, whereupon a final concentration of dimethyl sulfoxide itself was adjusted to 0.5 V/V %.
# candate nucleus = assay: Activity to increase topical cerebral blood flow, candate nucleus (heat clearance method); type: in vivo, rabbit (male New Zealand White); details: change in blood flow expressed in terms of voltage
# Procedure: (§1) The compound of this invention was dissolved in an aqueous solution containing 1% tartaric acid and 1% dimethylacetamide, while papaverine hydrochloride dissolved in 0.9% physiological saline. These test compounds were intravenously given through a residual polyethylene tube within femoral vein.
# (§2) Physiol. Scand., 67, 1 (1966); "Kokyu to Junkan" (in Japanese), 15, 435 (1967); the Journal of the Pharmacological Society of Japan, 71, 709 (1975)]. Simultaneously, blood pressure in femoral artery was also determined. Preparation and administration of test compounds were carried out in the same manner as in the above item (6).
# cerebral cortex = assay: Activity to increase topical cerebral blood flow, cerebral cortex (heat clearance method); type: in vivo, rabbit (male New Zealand White); details: change in blood flow expressed in terms of voltage
# Procedure: as §1, §2
# femoral artery [1] = assay: Blood pressure in femoral artery, topical cerebral blood flow test; type: in vivo, rabbit (male New Zealand White)
# Procedure: as §1, §2
# coronary artery = assay: Activity to increase blood flow volume in coronary artery; type: in vivo, dog (mongrel adult dog)
# Procedure: as §1
# (§3) A mongrel adult dog was anesthetized with pentobarbital sodium and then underwent thoracotomy under artificial respiration. After cardiac membrane was removed, the origin of branches in left coronary artery was removed from its peripheral tissues and blood flow volume of coronary artery was measured via the probe for determining blood flow which was attached to said origin. Simultaneously, blood pressure in femoral artery was measured. Preparation and administration of test compounds were carried out in the same manner as in the above item (6).
# femoral artery [2] = assay: Blood pressure in femoral artery, coronary blood flow test; type: in vivo, dog (mongrel adult dog)
# Procedure: as §1, §3
# [3] = 10 mg/Kg oral, 6 hrs. after administration, of 4 rabbits
# [4] = 30 mg/Kg oral, 24 hrs. after administration, of 8 (Compound 1) or 4 rabbits
# [5] = 30 mg/Kg oral, 48 hrs. after administration, of 8 (Compound 1) or 4 rabbits
compound,measurement,setting,value
"CCC(CC)Nc1nnc(-c2ccccc2)c2ccccc12 [Compound 2, 1-(1-ethylpropylamino)-4-phenylphthalazine]",Mortality (number of rabbits),"rabbits; 3 mg/Kg oral, 2 hrs. after administration, of 4 rabbits",2
same,Mortality (number of rabbits),"rabbits; 3 mg/Kg oral, 6 hrs. after administration, of 4 rabbits",1
same,Mortality (number of rabbits),"rabbits; 3 mg/Kg oral, 24 hrs. after administration, of 4 rabbits",1
same,Mortality (number of rabbits),rabbits; [3],4
same,Mortality (number of rabbits),rabbits; [4],2
same,Mortality (number of rabbits),rabbits; [5],2
"CC(C)(C)CNc1nnc(-c2ccccc2)c2ccccc12 [Compound 1, 1-neopentylamino-4-phenylphthalazine]",inhibition at 300 µM,blood platelets; 3·10^-4 M,50.2%
same,inhibition at 30 µM,blood platelets; 3·10^-5 M,40.8%
same,inhibition at 3 µM,blood platelets; 3·10^-6 M,12.5%
same,inhibition at 0.3 µM,blood platelets; 3·10^-7 M,8.2%
same,Mortality (number of rabbits),"rabbits; 10 mg/Kg oral, 2 hrs. after administration, of 4 rabbits",1
same,Mortality (number of rabbits),rabbits; [3],2
same,Mortality (number of rabbits),"rabbits; 10 mg/Kg oral, 24 hrs. after administration, of 4 rabbits",1
same,Mortality (number of rabbits),rabbits; [4],3
same,Mortality (number of rabbits),rabbits; [5],1
same,Mortality (number of rabbits),"rabbits; 30 mg/Kg oral, 72 hrs. after administration, of 8 rabbits",4
same,inhibition at 3 µM,Thoracic aorta; final concentration 3 μM,8.5%
same,inhibition at 10 µM,Thoracic aorta; final concentration 10 μM,30%
same,"Increase in topical blood flow volume, Candate nucleus",candate nucleus; 0.3 mg/Kg i.v.,0.63 ± 0.08 Δ μV
same,"Increase in topical blood flow volume, Candate nucleus",candate nucleus; 1 mg/Kg i.v.,0.85 ± 0.25 Δ μV
same,"Increase in topical blood flow volume, Cerebral cortex",cerebral cortex; 0.3 mg/Kg i.v.,1.03 ± 0.12 Δ μV
same,"Increase in topical blood flow volume, Cerebral cortex",cerebral cortex; 1 mg/Kg i.v.,2.05 ± 0.29 Δ μV
same,Lowering of blood pressure in femoral artery,femoral artery [1]; 0.3 mg/Kg i.v.,18.2 ± 0.98%
same,Lowering of blood pressure in femoral artery,femoral artery [1]; 1 mg/Kg i.v.,30.8 ± 3.2%
same,"Blood flow volume in coronery artery, After administration",coronary artery; 0.1 mg/Kg,28.8 mL/min
same,"Blood flow volume in coronery artery, Before administration",coronary artery; 0.1 mg/Kg,18.8 mL/min
same,"Blood flow volume in coronery artery, Increase rate",coronary artery; 0.1 mg/Kg,53.2%
same,"Blood flow volume in coronery artery, After administration",coronary artery; 0.3 mg/Kg,37.5 mL/min
same,"Blood flow volume in coronery artery, Before administration",coronary artery; 0.3 mg/Kg,18.8 mL/min
same,"Blood flow volume in coronery artery, Increase rate",coronary artery; 0.3 mg/Kg,99.5%
same,Lowering of blood pressure in femoral artery,femoral artery [2]; 0.1 mg/Kg,17.6%
same,Lowering of blood pressure in femoral artery,femoral artery [2]; 0.3 mg/Kg,29.4%
